Assay results: publication PMC4153677, “Probing the Activity Modification Space of the Cysteine Peptidase Cathepsin K with Novel Allosteric Modifiers” (PLoS ONE, 2014)
Where two headings read alike, the source gives them in different places.

Tests used:
[1] = molecular target: T1, Recombinant human cathepsin K (Homo sapiens, UniProt P43235); test: Azocasein degradation assays; format: biochemical; conditions: pH 5.5; substrate azocasein 3 mg/ml; 0.1 µM cathepsin K, 30 min 37°C, pH 5.50; compounds up to 2 mM (compound 2: 1 mM); read-out: Residual activity
T1 construct: made in house
T1 sequence (P43235 115-329): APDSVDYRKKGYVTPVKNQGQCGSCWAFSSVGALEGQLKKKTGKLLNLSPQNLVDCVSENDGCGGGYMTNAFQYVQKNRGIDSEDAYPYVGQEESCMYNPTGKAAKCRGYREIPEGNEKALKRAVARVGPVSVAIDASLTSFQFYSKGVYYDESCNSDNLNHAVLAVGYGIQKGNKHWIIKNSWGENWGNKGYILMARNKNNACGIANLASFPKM
Excerpt: Figure 4 Effect of modifiers on the degradation of macromolecular substrates. (A) Effect of increasing concentrations of compounds 1 and 2 on the degradation of calf skin collagen. Molecular mass standards are given in kDa and positions of α, β and γ chains of intact collagen are marked by arrows. (B) Effect of modifiers on azocasein degradation. (C) Effect of glycosaminoglycans and clusterin on azocasein degradation. Two different concentrations of each glycosaminoglycan were used in the experiments (10 µg/ml and 200 µg/ml). Error bars in panels B and C represent the SEM of three experiments. All experiments were performed in 100 mM sodium acetate buffer pH 5.50 containing 1 mM EDTA and 5 mM DTT, as described in detail in the Materials and Methods section. Abbreviations: CPD – compound, CS – chondroitin sulfate, DS – dermatan sulfate, HP – heparin.
Azocasein (Sigma-Aldrich, USA) was dissolved in 100 mM sodium acetate buffer pH 5.50 containing 1 mM EDTA and 5 mM DTT at a concentration of 3 mg/ml. Samples were incubated with 0.1 µM cathepsin K for 30 min at 37°C in the presence of each compound. […] Reactions were stopped by addition of trichloroacetic acid (final concentration 5% v/v), centrifuged, clear supernatants mixed with 0.5 M NaOH and the concentrations of solubilized peptides determined by measuring the absorbance at 440 nm. All experiments were performed in triplicates and appropriate blanks were run to take into account the absorption of azocasein and compounds alone. IC 50 values were determined as described previously.

[2] = molecular target: T1, Recombinant human cathepsin K; test: Collagenolytic assays (calf skin collagen, SDS-PAGE); format: biochemical; design: key to collagen: qualitative value: qualitative values of 1 and 0 were used to signify inhibition and lack thereof, respectively; qualitative values of 1 and 0 were used to signify inhibition and lack thereof, respectively; a value of -1 was used to describe the concentration-dependent roles of glycosaminoglycans
Experimental: The use of synthetic substrates is practical for the determination of the mechanisms of modification. […] Therefore, all modifiers were also tested with two macromolecular substrates, calf skin collagen and azocasein. The collagenolytic activity was tested quantitatively by following the fragmentation of the characteristic type I collagen pattern into smaller products on SDS-PAGE after incubation of the samples with cathepsin K in the presence and absence of modifiers.
Soluble calf skin collagen (Worthington Biochemical Corporation, USA) was diluted in 100 mM sodium acetate buffer pH 5.50 containing 1 mM EDTA and 5 mM DTT to a final concentration of 0.5 mg/ml. Experiments were started by addition of cathepsin K (final enzyme concentration 0.6 µM) to the reaction mixture containing collagen and increasing concentrations of modifier. All assays were performed at 28°C with shaking on an Eppendorf Thermomixer Comfort. Samples were incubated for 2 hours and the reactions then blocked by addition of E-64 to a final concentration of 1 µM. 10 µg of digested collagen were analyzed by SDS-PAGE on 8% polyacrylamide gels and protein bands visualized by Coomassie Brilliant Blue R-250 staining.

[3] = molecular target: T1, Recombinant human cathepsin K; test: Thermal stability of cathepsin K at pH 7.4 in the presence of modifiers; format: biochemical
Experimental: Cathepsin K was incubated at 37°C in 50 mM Hepes buffer pH 7.40 containing 1 mM EDTA and 5 mM DTT in the presence or absence of each modifier. The final enzyme concentration was 0.2 µM and final compounds concentrations were 2 mM, except compound 2, which was used at a concentration of 1 mM. All experiments were performed in Eppendorf Protein LoBind Tubes to minimize the adsorption of proteins on tube walls. Aliquots were withdrawn from the reaction mixtures at regular time intervals and their residual activity measured using the substrate Z-FR↓AMC (5 µM final concentration). Inactivation curves had exponential profiles that were fitted with the mathematical model for one-phase exponential decay to determine the half-life of the enzyme in each reaction mixture.

[4] = Solubility in aqueous buffers; format: physicochemical; conditions: aqueous buffer, kinetic from dmso stock
Experimental: Recombinant human cathepsin K was prepared as described previously. Chemical probes were obtained from the U.S. NCI/DTP Open Chemical Repository or from ChemBridge (USA). All compounds were soluble in aqueous buffers at concentrations of at least 2 mM, except for compound 2, which was soluble up to a maximal concentration of 1 mM. Stock solutions of all compounds were prepared in DMSO. The fluorogenic substrate Z-FR↓AMC (benzyloxycarbonyl-Phe-Arg-7-amino-4-methylcoumarin) was from Bachem (Switzerland).

OC(c1cc(-c2ccc(C(F)(F)F)cc2)nc(C(F)(F)F)c1)C1CCCCN1 (centres unmarked) [Compound 2, Piperidin-2-yl-[2-(trifluoromethyl)-6-[4-(trifluoromethyl)phenyl]pyridin-4-yl] methanol]
remaining activity [1]: 93 ± 7% | Effect on degradation of calf skin collagen ([2]; SDS-PAGE, increasing concentrations of modifier): concentration-dependent inhibitory effect | collagen: qualitative value ([2]; activity modification matrix): 1 | IC50 ([2]; degradation of calf skin collagen, read-out: IC 50 (estimated)): ~500 µM | IC50 ([2]; substrate calf skin collagen 0.5 mg/ml, 0.6 µM cathepsin K, 2 hours 28°C, pH 5.50, estimated, read-out: IC 50): 500 µM | stability: ln(sf), sf = ratio of half-lives in the presence and absence of modifier ([3]; 37 °C and pH 7.4): 0.79 | Increase of stability (half-life) of cathepsin K ([3]; pH 7.4, 37°C, versus enzyme only): about 2 fold | solubility [4]: ≤ 1000 µM
